Measurements taken from US20210396743A1 (priority 2020, published 2021).
“Also recorded” adds a separate entry of the source. Like-named read-outs stand apart in the source and are kept apart here. Residues, ends and D or L forms follow the SMILES beside them.

Legend:
SdeA181-1000 [1] = biological target: T1, SdeA181-1000 (Legionella pneumophila subsp. pneumophila, UniProt Q5ZTK4); format: biochemical, L. pneumophila
SdeA181-1000 [2] = biological target: T1, SdeA181-1000; format: biochemical, L. pneumophila; remark: listed apart in the source
SdeA181-1000 [3] = biological target: T1, SdeA181-1000; format: biochemical, L. pneumophila; remark: listed apart in the source
SdeA [4] = format: biochemical, L. pneumophila; conditions: 100 μM analogue, 100 μM ubiquitin, 0.5 μM enzyme, emission 410 nm
SdeA [5] = biological target: SdeA (Legionella pneumophila subsp. pneumophila, UniProt Q5ZTK4); conditions: cited from earlier work
Chain of SdeA (Legionella pneumophila subsp. pneumophila, UniProt Q5ZTK4) (Q5ZTK4 whole entry, looked up): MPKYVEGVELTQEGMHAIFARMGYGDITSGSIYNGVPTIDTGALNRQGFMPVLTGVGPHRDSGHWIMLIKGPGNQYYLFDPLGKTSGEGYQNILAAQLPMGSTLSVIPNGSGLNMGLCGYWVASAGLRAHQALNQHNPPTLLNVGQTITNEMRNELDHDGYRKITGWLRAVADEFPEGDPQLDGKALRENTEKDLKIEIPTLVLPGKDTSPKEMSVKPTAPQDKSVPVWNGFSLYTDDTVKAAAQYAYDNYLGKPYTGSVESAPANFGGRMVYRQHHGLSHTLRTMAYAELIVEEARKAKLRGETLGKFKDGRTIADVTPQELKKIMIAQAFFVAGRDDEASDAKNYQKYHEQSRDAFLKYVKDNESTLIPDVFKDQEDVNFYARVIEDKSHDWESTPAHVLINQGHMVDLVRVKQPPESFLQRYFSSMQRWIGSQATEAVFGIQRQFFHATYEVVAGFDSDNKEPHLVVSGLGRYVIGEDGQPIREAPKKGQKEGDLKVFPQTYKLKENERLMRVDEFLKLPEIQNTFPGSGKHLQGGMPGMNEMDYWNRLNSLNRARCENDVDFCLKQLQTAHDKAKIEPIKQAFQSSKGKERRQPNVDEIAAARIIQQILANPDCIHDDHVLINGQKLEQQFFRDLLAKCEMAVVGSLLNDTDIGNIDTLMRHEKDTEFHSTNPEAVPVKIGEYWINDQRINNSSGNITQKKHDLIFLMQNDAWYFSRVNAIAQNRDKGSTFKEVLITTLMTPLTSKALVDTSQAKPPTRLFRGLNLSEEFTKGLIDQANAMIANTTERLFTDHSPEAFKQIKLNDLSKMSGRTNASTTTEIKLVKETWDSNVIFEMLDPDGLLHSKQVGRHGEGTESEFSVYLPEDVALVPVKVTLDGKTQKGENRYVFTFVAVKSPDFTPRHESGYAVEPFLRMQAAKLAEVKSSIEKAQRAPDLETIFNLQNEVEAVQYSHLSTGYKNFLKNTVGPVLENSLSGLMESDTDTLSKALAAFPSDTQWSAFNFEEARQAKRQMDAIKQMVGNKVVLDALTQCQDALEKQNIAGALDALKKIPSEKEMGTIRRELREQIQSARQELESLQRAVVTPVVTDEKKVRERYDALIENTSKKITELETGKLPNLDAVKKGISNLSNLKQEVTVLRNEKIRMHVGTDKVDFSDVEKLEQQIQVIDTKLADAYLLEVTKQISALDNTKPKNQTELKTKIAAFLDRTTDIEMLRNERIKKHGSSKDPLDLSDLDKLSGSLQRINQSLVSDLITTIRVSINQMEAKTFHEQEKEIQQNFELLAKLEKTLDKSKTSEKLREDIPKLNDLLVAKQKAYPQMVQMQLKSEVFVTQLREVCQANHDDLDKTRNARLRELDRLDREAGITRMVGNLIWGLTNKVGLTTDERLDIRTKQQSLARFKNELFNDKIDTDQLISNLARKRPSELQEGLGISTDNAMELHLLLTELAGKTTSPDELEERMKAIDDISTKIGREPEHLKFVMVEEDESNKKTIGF

T1 sequence (Q5ZTK4 181-1000 limits assumed): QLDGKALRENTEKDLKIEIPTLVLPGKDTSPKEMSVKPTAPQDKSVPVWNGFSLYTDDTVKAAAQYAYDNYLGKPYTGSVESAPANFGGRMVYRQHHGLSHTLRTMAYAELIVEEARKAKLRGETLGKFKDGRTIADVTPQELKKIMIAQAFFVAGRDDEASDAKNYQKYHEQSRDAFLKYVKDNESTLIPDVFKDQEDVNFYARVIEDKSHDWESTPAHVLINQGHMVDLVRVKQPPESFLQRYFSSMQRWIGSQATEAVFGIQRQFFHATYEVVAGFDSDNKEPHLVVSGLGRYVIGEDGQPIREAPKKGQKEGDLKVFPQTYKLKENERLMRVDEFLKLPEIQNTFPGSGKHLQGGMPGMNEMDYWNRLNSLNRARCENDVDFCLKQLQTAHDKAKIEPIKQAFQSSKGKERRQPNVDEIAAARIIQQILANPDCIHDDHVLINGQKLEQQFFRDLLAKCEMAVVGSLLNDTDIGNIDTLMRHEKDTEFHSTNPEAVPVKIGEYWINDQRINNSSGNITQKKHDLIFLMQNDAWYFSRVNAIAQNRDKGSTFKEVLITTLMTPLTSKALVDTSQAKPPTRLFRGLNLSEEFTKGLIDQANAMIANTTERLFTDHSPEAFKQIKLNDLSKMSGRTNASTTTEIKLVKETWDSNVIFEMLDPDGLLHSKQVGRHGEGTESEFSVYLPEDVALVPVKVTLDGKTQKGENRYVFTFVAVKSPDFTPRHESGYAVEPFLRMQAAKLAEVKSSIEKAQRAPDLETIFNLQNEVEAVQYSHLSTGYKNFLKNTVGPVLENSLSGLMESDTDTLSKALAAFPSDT

## Nc1ncnc2c1ncn2[C@@H]1O[C@H](COP(=O)(O)OP(=O)(O)OC[C@H]2OC(O)[C@H](O)[C@@H]2O)[C@@H](O)[C@H]1O (some centres unmarked) [ADP-ribose]
SdeA181-1000 [1]
  inhibition of peptide ubiquitination: inhibition of peptide ubiquitination; also recorded: impairment of peptide ubiquitination

## CSCC[C@H](NC(=O)c1ccc(-c2c3ccc(=O)cc-3oc3cc(O)ccc23)c(C(=O)O)c1)C(=O)N[C@@H](CO)C(=O)N[C@@H](CO)C(=O)N[C@@H](CCSC)C(=O)N[C@@H](CC(N)=O)C(=O)N1CCC[C@H]1C(=O)N[C@@H](CCC(=O)O)C(=O)N[C@@H](Cc1ccc(O)cc1)C(=O)N[C@@H](CC(=O)O)C(N)=O [peptide] (HELM PEPTIDE1{[O=C(O)c1cc(C(=O)[*:2])ccc1-c1c2ccc(=O)cc-2oc2cc(O)ccc12].M.S.S.M.N.P.E.Y.D.[am]}$$$$V2.0)
SdeA181-1000 [2]
  ubiquitination of peptide by SdeA (fluorescence polarization): significant increase in FP
SdeA181-1000 [2]; read-out: apparent KM
  Km: ~80 µM
SdeA181-1000 [3]
  in-gel fluorescence of ubiquitinated peptide (SDS-PAGE): presence of a fluorescent band around 10 kDa

## NC(=O)c1ccc[n+]([C@@H]2O[C@H](COP(=O)(O)OP(=O)([O-])OC[C@H]3O[C@@H](c4snc5c(N)ncnc45)C(O)C3O)C(O)C2O)c1 (some centres unmarked) [N^tzAD^+]
SdeA [4]; listed as NtzAD+
  fluorescence increase on incubation with SdeA and Ub: lower fold increase in fluorescence intensity

## NC(=O)c1ccc[n+]([C@@H]2O[C@H](COP(=O)([O-])OP(=O)([O-])OC[C@H]3O[C@@H](n4cnc5c4nc[n+]4cc[nH]c54)C(O)[C@H]3O)[C@H](O)C2O)c1 (some centres unmarked) [εNAD^+, nicotinamide 1,N6-ethenoadenine dinucleotide]
SdeA [4]
  fluorescence increase on incubation with SdeA and Ub: increase in fluorescence emission at 410 nm

## Nc1ncnc2c1ncn2[C@@H]1O[C@H](COP(=O)(O)O)[C@@H](O)[C@H]1O [AMP, adenosine monophosphate]
SdeA181-1000 [1]
  inhibition of peptide ubiquitination: inhibition of peptide ubiquitination; also recorded: impairment of peptide ubiquitination
SdeA [5]
  inhibitor of SdeA-catalyzed ubiquitination (previous study): weak inhibitor
